We go through four compounds from PMC8550792, “Evolution of kinase polypharmacology across HSP90 drug discovery” (Cell Chemical Biology, 2021).

What all share (test): biochemical
Common to all, as to assay type: biochemical

Assay [1] deals with T1, 382 unique human kinases (Homo sapiens, UniProt Q8WTQ7).
T1 construct: purchased Reaction Biology (HotSpot contract assay)
T1 sequence (Q8WTQ7 1-553): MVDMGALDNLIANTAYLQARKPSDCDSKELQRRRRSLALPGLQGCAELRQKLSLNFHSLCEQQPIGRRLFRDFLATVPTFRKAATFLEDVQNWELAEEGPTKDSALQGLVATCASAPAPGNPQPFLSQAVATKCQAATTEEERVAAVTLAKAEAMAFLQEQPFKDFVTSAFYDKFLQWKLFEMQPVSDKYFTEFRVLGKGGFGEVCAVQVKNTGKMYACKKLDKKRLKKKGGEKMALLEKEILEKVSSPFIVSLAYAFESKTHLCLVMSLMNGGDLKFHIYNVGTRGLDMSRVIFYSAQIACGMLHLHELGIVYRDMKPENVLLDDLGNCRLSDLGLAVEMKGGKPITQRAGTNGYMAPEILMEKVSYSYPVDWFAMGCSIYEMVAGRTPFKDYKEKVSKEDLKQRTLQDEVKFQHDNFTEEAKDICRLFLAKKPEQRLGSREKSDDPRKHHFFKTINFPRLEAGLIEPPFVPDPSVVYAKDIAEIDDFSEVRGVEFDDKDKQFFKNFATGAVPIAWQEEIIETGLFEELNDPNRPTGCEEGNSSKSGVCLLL
Conditions: GRK7, 10 uM; for remaining activity at 10 µM: read-out: % Enzyme Activity (relative to DMSO controls).

Assay [2] concerns the target T2, 382 unique human kinases (Homo sapiens, UniProt Q16512).
T2 construct: purchased Reaction Biology (HotSpot contract assay)
Conditions: PKN1/PRK1, 10 uM; for remaining activity at 10 µM: read-out: % Enzyme Activity (relative to DMSO controls).

Assay [3] concerns the target T3, 382 unique human kinases (Homo sapiens, UniProt P06493).
T3 construct: purchased Reaction Biology (HotSpot contract assay)
The conditions noted are these: for remaining activity at 10 µM: read-out: % Enzyme Activity (relative to DMSO controls).

In assay [4] the target is T4, 382 unique human kinases (Homo sapiens, UniProt P43405).
T4 construct: purchased Reaction Biology (HotSpot contract assay)
The conditions noted are these: SYK, 10 uM; for remaining activity at 10 µM: read-out: % Enzyme Activity (relative to DMSO controls).

The target in assay [5] is T5, 382 unique human kinases (Homo sapiens, UniProt Q09013).
T5 construct: purchased Reaction Biology (HotSpot contract assay)
T5 sequence (Q09013 1-629): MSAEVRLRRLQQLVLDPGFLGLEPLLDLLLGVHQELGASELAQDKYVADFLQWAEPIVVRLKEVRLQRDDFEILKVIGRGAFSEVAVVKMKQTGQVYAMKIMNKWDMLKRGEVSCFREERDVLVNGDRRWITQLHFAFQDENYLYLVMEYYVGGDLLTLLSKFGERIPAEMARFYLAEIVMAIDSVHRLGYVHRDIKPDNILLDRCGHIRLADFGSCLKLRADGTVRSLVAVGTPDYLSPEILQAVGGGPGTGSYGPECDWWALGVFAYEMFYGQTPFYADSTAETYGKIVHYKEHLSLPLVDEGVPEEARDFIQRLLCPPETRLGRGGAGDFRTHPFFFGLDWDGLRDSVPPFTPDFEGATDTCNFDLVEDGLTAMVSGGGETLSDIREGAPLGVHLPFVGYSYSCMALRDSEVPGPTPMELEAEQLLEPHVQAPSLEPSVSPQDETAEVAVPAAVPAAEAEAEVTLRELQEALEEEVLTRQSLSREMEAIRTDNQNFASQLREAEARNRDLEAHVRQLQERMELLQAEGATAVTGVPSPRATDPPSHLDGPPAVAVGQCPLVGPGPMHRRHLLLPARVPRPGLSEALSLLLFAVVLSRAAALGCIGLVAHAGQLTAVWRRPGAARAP
The conditions noted are these: DMPK, 10 uM; for remaining activity at 10 µM: read-out: % Enzyme Activity (relative to DMSO controls).

For assay [6], the target named is T6, 382 unique human kinases (Homo sapiens, UniProt Q13464).
T6 construct: purchased Reaction Biology (HotSpot contract assay)
T6 sequence (Q13464 whole entry): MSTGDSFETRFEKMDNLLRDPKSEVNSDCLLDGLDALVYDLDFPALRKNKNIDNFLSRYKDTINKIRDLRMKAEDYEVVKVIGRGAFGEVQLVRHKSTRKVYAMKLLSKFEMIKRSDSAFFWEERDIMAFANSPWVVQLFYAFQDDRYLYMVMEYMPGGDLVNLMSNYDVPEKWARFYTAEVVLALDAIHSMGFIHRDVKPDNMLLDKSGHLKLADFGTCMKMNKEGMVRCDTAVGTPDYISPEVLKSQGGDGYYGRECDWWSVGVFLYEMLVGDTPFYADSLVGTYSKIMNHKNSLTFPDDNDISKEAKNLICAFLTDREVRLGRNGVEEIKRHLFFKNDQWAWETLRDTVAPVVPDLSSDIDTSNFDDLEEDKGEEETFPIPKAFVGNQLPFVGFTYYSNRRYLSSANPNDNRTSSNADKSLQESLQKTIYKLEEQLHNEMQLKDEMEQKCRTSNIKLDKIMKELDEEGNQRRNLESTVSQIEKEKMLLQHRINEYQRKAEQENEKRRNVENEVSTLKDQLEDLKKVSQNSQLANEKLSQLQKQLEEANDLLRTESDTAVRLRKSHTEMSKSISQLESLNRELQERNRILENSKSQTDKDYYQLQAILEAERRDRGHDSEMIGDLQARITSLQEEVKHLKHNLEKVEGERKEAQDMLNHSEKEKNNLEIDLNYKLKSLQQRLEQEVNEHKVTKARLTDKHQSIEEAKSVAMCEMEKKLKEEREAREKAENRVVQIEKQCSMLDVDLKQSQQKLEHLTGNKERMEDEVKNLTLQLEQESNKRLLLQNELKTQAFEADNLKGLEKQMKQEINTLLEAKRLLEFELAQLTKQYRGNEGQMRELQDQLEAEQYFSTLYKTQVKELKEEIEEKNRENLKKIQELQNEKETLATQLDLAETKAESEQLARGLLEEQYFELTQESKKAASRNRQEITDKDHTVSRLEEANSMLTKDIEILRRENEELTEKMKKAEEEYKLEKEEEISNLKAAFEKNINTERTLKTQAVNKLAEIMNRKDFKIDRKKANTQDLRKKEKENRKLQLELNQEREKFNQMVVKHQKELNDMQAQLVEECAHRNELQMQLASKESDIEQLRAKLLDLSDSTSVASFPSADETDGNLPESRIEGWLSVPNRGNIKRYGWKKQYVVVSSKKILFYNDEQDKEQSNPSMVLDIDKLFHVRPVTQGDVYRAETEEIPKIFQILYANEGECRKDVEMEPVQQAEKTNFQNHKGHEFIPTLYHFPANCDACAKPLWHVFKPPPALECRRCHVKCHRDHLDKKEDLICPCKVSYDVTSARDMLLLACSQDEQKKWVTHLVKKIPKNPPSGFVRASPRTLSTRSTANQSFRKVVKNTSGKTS
Conditions: ROCK1, 10 uM; for remaining activity at 10 µM: read-out: % Enzyme Activity (relative to DMSO controls).

In assay [7] the target is T7, 382 unique human kinases (Homo sapiens, UniProt Q9P1W9).
T7 construct: purchased Reaction Biology (HotSpot contract assay)
T7 sequence (Q9P1W9 whole entry): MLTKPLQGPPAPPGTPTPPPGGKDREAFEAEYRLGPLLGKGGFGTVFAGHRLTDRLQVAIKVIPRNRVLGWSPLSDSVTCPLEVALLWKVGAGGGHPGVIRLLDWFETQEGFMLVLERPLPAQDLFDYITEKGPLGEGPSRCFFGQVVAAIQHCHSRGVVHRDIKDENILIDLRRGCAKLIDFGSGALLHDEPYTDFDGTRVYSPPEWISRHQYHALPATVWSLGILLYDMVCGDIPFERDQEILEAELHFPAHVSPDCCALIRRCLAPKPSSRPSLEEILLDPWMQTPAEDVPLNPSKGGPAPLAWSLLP
The conditions noted are these: PIM2, [ATP] 20 µM, compound 10 uM; for remaining activity at 10 µM: read-out: % Enzyme Activity (relative to DMSO controls).

For assay [8], the target named is T8, 382 unique human kinases (Homo sapiens, UniProt P42685).
T8 construct: purchased Reaction Biology (HotSpot contract assay)
T8 sequence (P42685 whole entry): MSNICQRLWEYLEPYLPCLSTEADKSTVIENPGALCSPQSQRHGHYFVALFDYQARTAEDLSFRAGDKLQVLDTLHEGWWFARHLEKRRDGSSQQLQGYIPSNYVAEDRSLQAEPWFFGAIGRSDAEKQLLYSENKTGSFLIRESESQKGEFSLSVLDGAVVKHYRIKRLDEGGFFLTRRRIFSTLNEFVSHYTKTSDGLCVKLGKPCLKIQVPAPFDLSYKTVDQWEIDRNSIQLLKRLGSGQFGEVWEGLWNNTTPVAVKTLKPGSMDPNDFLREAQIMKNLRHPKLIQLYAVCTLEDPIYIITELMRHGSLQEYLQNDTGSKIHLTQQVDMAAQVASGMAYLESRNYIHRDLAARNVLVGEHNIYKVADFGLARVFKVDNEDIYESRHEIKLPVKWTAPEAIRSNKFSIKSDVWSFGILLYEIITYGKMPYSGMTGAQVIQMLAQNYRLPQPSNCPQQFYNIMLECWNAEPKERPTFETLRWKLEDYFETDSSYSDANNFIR
The conditions noted are these: FRK/PTK5, [ATP] 30 µM, compound 10 uM; for remaining activity at 10 µM: read-out: % Enzyme Activity (relative to DMSO controls).

Assay [9] concerns the target T9, 382 unique human kinases (Homo sapiens, UniProt P06239).
T9 construct: purchased Reaction Biology (HotSpot contract assay)
The conditions noted are these: LCK, [ATP] 15 µM.

Assay [10] concerns the target T10, 382 unique human kinases (Homo sapiens, UniProt P07949, Y791F).
T10 construct: purchased Reaction Biology (HotSpot contract assay)
The conditions noted are these: [ATP] 15 µM, compound 10 uM, read-out: % Enzyme Activity (relative to DMSO controls).

Assay [11] addresses T11, 382 unique human kinases (Homo sapiens, UniProt Q05513).
T11 construct: purchased Reaction Biology (HotSpot contract assay)
T11 sequence (Q05513 1-592): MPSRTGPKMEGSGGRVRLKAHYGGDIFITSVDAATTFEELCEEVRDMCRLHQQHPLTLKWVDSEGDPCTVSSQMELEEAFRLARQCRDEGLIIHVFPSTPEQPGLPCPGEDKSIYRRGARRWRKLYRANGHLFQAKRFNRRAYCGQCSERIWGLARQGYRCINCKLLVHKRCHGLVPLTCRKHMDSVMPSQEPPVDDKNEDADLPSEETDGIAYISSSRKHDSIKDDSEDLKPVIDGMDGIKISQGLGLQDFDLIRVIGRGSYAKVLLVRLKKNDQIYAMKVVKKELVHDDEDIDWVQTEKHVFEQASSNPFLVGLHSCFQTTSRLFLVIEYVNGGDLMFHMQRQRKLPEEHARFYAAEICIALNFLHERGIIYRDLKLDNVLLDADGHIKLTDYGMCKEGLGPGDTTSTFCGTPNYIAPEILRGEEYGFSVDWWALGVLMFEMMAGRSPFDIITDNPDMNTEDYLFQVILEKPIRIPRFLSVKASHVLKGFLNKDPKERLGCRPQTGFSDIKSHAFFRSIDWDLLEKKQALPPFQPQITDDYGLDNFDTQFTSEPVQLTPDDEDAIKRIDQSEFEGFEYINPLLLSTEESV
Conditions: PKCzeta, 10 uM; for remaining activity at 10 µM: read-out: % Enzyme Activity (relative to DMSO controls).

In assay [12] the target is T12, 382 unique human kinases (Homo sapiens, UniProt Q9UM73, C1156Y).
T12 construct: purchased Reaction Biology (HotSpot contract assay)
T12 sequence (Q9UM73 19-1620 C1156Y): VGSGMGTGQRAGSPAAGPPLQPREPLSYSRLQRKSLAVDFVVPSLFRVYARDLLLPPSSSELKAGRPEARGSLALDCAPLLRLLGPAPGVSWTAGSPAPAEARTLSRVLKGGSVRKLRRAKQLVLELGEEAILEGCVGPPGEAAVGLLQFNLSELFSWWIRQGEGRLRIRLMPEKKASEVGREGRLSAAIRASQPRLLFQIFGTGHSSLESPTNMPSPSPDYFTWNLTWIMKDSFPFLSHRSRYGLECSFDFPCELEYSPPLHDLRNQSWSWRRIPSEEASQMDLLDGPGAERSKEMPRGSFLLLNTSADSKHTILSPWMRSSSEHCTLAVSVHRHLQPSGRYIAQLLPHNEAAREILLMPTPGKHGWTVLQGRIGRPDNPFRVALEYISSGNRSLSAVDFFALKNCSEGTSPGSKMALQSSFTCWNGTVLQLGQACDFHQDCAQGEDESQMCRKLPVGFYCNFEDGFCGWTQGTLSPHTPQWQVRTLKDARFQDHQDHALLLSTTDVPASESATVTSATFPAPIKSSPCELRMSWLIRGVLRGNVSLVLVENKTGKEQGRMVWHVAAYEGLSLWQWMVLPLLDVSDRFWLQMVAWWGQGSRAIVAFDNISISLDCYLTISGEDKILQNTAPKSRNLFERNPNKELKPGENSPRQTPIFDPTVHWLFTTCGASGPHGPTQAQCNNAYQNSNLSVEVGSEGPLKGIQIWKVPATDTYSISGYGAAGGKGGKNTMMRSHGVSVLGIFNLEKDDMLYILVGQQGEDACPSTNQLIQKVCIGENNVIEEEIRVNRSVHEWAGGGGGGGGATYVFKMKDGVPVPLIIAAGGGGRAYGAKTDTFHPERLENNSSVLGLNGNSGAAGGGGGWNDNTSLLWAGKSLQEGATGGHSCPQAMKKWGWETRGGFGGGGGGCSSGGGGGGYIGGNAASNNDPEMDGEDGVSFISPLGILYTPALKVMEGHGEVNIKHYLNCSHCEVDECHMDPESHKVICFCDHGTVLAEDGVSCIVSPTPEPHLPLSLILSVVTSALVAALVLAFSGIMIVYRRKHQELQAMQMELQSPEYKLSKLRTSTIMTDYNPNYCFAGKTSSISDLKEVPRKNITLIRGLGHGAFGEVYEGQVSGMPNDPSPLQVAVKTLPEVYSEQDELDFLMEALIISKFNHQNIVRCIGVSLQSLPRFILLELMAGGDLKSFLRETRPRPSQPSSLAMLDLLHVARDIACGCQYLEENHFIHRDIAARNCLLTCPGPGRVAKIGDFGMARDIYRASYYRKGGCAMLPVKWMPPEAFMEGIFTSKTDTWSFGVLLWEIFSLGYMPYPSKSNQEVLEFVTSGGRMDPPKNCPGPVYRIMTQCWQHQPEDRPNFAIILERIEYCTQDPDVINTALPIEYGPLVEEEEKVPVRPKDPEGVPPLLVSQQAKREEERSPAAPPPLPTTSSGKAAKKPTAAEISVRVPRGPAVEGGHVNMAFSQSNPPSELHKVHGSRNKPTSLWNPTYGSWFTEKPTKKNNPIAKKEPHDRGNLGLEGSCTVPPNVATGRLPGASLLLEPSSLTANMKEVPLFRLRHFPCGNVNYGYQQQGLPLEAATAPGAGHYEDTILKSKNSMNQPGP
The conditions noted are these: ALK (C1156Y), [ATP] 5 µM, compound 10 uM; for remaining activity at 10 µM: read-out: % Enzyme Activity (relative to DMSO controls).

Assay [13] concerns the target T13, 382 unique human kinases (Homo sapiens, UniProt Q8N568).
T13 construct: purchased Reaction Biology (HotSpot contract assay)
The conditions noted are these: DCAMKL2, 10 uM; for remaining activity at 10 µM: read-out: % Enzyme Activity (relative to DMSO controls).

Assay [14] deals with T14, 382 unique human kinases (Homo sapiens, UniProt Q15208).
T14 construct: purchased Reaction Biology (HotSpot contract assay)
T14 sequence (Q15208 whole entry): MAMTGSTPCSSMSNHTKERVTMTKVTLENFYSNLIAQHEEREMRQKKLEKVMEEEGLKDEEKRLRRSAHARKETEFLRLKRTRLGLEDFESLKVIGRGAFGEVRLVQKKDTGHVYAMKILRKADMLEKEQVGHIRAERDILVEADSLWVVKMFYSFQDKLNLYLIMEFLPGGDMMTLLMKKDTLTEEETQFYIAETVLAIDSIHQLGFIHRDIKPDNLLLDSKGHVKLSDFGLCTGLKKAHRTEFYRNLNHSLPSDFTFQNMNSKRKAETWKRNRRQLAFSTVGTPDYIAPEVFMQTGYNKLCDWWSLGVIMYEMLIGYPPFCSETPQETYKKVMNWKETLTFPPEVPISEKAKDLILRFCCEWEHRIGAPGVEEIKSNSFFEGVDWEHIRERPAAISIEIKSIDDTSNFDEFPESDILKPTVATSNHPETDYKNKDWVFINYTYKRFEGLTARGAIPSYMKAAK
The conditions noted are these: STK38/NDR1, 10 uM; for remaining activity at 10 µM: read-out: % Enzyme Activity (relative to DMSO controls).

Where [15] appears, read: kinase CDK1/cyclin A, compound 10 uM.
Where [16] appears, read: kinase CDK1/cyclin E, compound 10 uM.
Where [17] appears, read: compound 10 uM, read-out: % Enzyme Activity (relative to DMSO controls).

Read-outs that look alike come from different tables or passages of the source.

T9 sequence (P06239 whole entry): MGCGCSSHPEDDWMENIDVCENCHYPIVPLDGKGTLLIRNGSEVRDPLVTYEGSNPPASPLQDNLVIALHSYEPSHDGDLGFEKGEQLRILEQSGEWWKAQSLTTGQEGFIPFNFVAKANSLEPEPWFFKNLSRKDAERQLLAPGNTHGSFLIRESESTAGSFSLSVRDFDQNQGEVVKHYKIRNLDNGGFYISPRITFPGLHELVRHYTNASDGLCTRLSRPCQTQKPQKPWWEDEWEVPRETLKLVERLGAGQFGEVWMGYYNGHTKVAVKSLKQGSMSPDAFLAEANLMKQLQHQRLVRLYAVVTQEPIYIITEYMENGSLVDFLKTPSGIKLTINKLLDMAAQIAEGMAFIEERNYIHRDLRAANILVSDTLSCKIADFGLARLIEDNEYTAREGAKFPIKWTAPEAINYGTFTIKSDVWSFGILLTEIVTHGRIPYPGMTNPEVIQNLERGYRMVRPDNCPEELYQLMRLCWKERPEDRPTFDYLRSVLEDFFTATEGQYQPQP
T3 sequence (P06493 whole entry): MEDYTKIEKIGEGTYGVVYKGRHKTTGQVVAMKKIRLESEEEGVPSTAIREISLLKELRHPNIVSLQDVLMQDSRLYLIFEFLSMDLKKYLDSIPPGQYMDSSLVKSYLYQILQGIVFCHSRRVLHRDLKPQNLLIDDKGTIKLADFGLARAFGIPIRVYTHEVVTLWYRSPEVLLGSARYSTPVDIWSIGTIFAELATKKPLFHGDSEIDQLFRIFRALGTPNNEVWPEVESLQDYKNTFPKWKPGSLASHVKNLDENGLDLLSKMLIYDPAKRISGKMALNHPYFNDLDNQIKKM

Consider `CC(C)c1cc(-c2n[nH]c(=O)n2-c2ccc3c(ccn3C)c2)c(O)cc1O` [Ganetespib (STA9090)], for which the remaining activity at 10 µM at 382 unique human kinases [1] worked out at 75.4%; on 382 unique human kinases [2], 71.7%; at 382 unique human kinases [3] (CDK1/cyclin B, 10 uM) it was 78.5%; at 382 unique human kinases [3] (setting [15]), 83.4%; at 382 unique human kinases [3] (setting [16]), 81.7%.
`CC(C)c1cc(-c2n[nH]c(=O)n2-c2ccc3c(ccn3C)c2)c(O)cc1O` [Ganetespib]: the remaining activity at 10 µM on 382 unique human kinases [4] came to 94%; on 382 unique human kinases [5], 110%; on 382 unique human kinases [6], 91.4%; on 382 unique human kinases [7], 28.8%; on 382 unique human kinases [8], 18.1%; at 382 unique human kinases [9] (setting [17]), 13.9%. For the same compound, the remaining activity at 10 µM at 382 unique human kinases [10] (RET (Y791F)) amounted to 60.9%; at 382 unique human kinases [11] it was 92.3%; on 382 unique human kinases [12] it was 20%; at 382 unique human kinases [13] it was 96.7%; on 382 unique human kinases [14], 95.7%. Further, at 382 unique human kinases [9] (compound 1 uM, read-out: % Enzyme Activity (relative to DMSO controls)), the remaining activity at 1 µM was 49.3%.
On to `CCNC(=O)c1noc(-c2cc(C(C)C)c(O)cc2O)c1-c1ccc(CN2CCOCC2)cc1` [Luminespib (AUY-922)], for which the “% Enzyme Activity (relative to DMSO controls)” value was found to be 95.66% at 382 unique human kinases [1]; 73.04% at 382 unique human kinases [2]; 86.64% at 382 unique human kinases [3] (CDK1/cyclin B, 10 uM); 96.86% on 382 unique human kinases [3] (setting [15]); 108.79% at 382 unique human kinases [3] (setting [16]). The remaining activity at 10 µM on 382 unique human kinases [1] came out at 96.7%; on 382 unique human kinases [2], 75.6%; on 382 unique human kinases [3] (CDK1/cyclin B, 10 uM) it was 86.8%; at 382 unique human kinases [3] (setting [15]), 97.5%; at 382 unique human kinases [3] (setting [16]) it was 113%.
On to `CCNC(=O)c1noc(-c2cc(C(C)C)c(O)cc2O)c1-c1ccc(CN2CCOCC2)cc1` [Luminespib], for which the “% Enzyme Activity (relative to DMSO controls)” value on 382 unique human kinases [4] is 101.25%; at 382 unique human kinases [5], 99.26%; on 382 unique human kinases [6] it was 95.76%; on 382 unique human kinases [7], 103.60%; on 382 unique human kinases [8] it was 63.67%; on 382 unique human kinases [9] (compound 10 uM) it was 58.73%. Also, the “% Enzyme Activity (relative to DMSO controls)” value at 382 unique human kinases [11] is recorded as 101.96%; at 382 unique human kinases [12], 91.42%; at 382 unique human kinases [13], 96.30%; at 382 unique human kinases [14], 98.10%. Besides, the remaining activity at 10 µM worked out at 102% on 382 unique human kinases [4]; 100% on 382 unique human kinases [5]; 96.4% at 382 unique human kinases [6]; 106% on 382 unique human kinases [7]; 64.5% on 382 unique human kinases [8]; 61% on 382 unique human kinases [9] (setting [17]). Moreover, the remaining activity at 10 µM is 100% on 382 unique human kinases [10] (RET (Y791F)); 99.9% on 382 unique human kinases [10] ([…]); 102% at 382 unique human kinases [11]; 93.3% at 382 unique human kinases [12]; 97.8% at 382 unique human kinases [13]; 99% at 382 unique human kinases [14].
